Experimental findings from patent US9708267B2, “Activators of human pyruvate kinase” (The United States of America, as represented by the …, priority 2010, dated 2017) are described below.

Read-outs that look alike come from different tables or passages of the source.

In the assay the target is hPK, M2 (Homo sapiens, UniProt P14618). The assay can be described thus: luminescent pyruvate kinase-luciferase coupled assay (qHTS). In kind it is biochemical. The following applies: for Emax: read-out: Max. Res.; for activation at 57 µM: % activation at 57 μM of compound, read-out: hPK, M2 Max. Res. The protocol:
AC50 values were determined utilizing the luminescent pyruvate kinase-luciferase coupled assay (Inglese, J. et al, Quantitative high-throughput screening: a titration-based approach that efficiently identifies biological activities in large chemical libraries. Proc. Natl. Acad. Sci. U.S.A. 2006, 103, 11473-11478).
Luminescent Pyruvate Kinase-Luciferase Coupled Assay.
Production of a luminescent signal based on the generation of ATP by pyruvate kinase was determined by using the ATP-dependent enzyme firefly luciferase. Three μL of substrate mix (at r.t.) in assay buffer (50 mM imidazole pH 7.2, 50 mM KCl, 7 mM MgCl2, 0.01% tween 20, 0.05% BSA) was dispensed into Kalypsys (San Diego, Calif., USA) white solid bottom 1,536 well microtiter plates using a bottle-valve solenoid-based dispenser (Kalypsys). The final concentrations of substrates in the assay were 0.1 mM ADP and 0.5 mM PEP. Twenty-three nL of compound in DMSO were delivered with a 1,536-pin array tool, and 1 μL of enzyme mix in assay buffer (final concentration, 0.1 nM pyruvate kinase, 50 mM imidazole pH 7.2, 0.05% BSA, 4° C.) was added. Microtiter plates were incubated at r.t. for 1 hour and 2 uL of luciferase detection mix (Kinase-Glo from Promega, Madison, Wis., USA) at 4° C. protected from light, was added and luminescence was read with a ViewLux (Perkin Elmer, Waltham, Mass., USA) using a 2 second exposure/plate (with 2× binning). The final concentration of DMSO was 0.5% and found not to affect the assay signal.
Data was normalized for AC50 values to control columns containing uninhibited enzyme (n), and AC100 inhibition (i) according the following equation: Activation (%)=[(c−n)/(n−i)]*100 where c=compound, n=DMSO neutral, i=no enzyme control. A % activity of 100% is approximately a 2-fold increase over basal assay signal (% Activation by FBP was variable but averaged 100%). Monitoring of activation was accomplished using enzyme at 3× the final concentration.
All compounds were screened using a qHTS approach, where compounds are assayed using at least seven concentrations to generate concentration-response curves for every compounds. Briefly, qHTS uses an inter-plate dilution method where the first plate contains the highest concentration of a set of compounds in DMSO, while subsequent plates contain the same compounds in the same well locations, but at successive lower concentrations. Using the protocol outlined above, the rate was calculated as a plate throughput of 18 plates/hr or approximately 7 samples/sec on the Kalypsys robotic system which means that a 7 point CRC was obtained every second on the robotic system.

[1] abbreviates: Table 4, 0.1 mM ADP, 0.5 mM PEP, read-out: AC50.
The mark [2] stands for this setting: Table 4, maximum response (activation).
Where [3] appears, read: Table 2, 0.1 mM ADP, 0.5 mM PEP, mean of three replicate experiments, read-out: hPK, M2 AC50.
[4] abbreviates: Table 2, mean of three replicate experiments.
The mark [5] stands for this setting: Table 1, 0.1 mM ADP, 0.5 mM PEP, mean of three replicate experiments, read-out: hPK, M2 AC50.
Where [6] appears, read: Table 1, mean of three replicate experiments.

hPK, M2, sequence (P14618 whole entry): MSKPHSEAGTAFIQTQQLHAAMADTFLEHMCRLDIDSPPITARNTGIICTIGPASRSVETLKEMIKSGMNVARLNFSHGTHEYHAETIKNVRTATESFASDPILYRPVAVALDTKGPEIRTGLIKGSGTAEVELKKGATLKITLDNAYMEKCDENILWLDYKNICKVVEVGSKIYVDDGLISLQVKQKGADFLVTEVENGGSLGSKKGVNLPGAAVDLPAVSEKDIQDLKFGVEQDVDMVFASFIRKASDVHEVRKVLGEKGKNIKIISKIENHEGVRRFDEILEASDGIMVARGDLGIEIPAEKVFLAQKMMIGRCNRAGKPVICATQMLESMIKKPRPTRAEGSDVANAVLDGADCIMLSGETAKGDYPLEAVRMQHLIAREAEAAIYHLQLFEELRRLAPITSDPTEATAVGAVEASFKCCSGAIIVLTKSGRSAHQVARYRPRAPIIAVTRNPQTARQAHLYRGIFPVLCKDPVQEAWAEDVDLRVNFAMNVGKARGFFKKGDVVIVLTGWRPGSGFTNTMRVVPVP

`Cc1ccc(NS(=O)(=O)c2ccc3c(c2)CCC(=O)N3)cc1Cl` [Compound 43, N-(3-chloro-4-methylphenyl)-2-oxo-1,2,3,4-tetrahydroquinoline-6-sulfonamide]: the AC50 under setting [1] was found to be 260 nM. Also, the Emax under setting [2] turned out to be 122%.

In the case of `COc1cccc(NS(=O)(=O)c2ccc3c(c2)CCC(=O)N3)c1` [Compound 15, N-(3-methoxyphenyl)-2-oxo-1,2,3,4-tetrahydroquinoline-6-sulfonamide], the AC50 under setting [3] came out at 3200 nM. For the same compound, the activation at 57 µM under setting [4] turned out to be 91%.

Take `O=C1CCc2cc(S(=O)(=O)Nc3ccc4c(c3)OCCO4)ccc2N1` [Compound 29, N-(2,3-dihydrobenzo[b][1,4]dioxin-6-yl)-2-oxo-1,2,3,4-tetrahydroquinoline-6-sulfonamide]: under setting [3], the AC50 worked out at 16000 nM. Besides, the activation at 57 µM under setting [4] stood at 86%.

For the compound `Cc1ccc(NS(=O)(=O)c2ccc3c(c2)C(Cl)(Cl)C(=O)N3)cc1C` [Compound 60, 3,3-dichloro-N-(3,4-dimethylphenyl)-2-oxoindoline-5-sulfonamide], under setting [1], the AC50 came out at 10300 nM. Further, the Emax under setting [2] was determined as 117%.

On to `O=C1CCc2cc(S(=O)(=O)Nc3ccc(Cl)c(Cl)c3)ccc2N1` [Compound 44, N-(3,4-dichlorophenyl)-2-oxo-1,2,3,4-tetrahydroquinoline-6-sulfonamide], for which the AC50 under setting [1] turned out to be 2590 nM. Further, the Emax under setting [2] came out at 126%.

Take `Cc1c(Cl)cccc1NS(=O)(=O)c1cc2c(cc1Cl)CCC(=O)N2` [Compound 59, 6-chloro-N-(3-chloro-2-methylphenyl)-2-oxo-1,2,3,4-tetrahydroquinoline-7-sulfonamide]: the AC50 under setting [1] stood at 1160 nM. Further, the Emax under setting [2] was 109%.

With `O=C1CCc2cc(S(=O)(=O)Nc3cccc(B(O)O)c3)ccc2N1` [Compound 52, 3-(2-oxo-1,2,3,4-tetrahydroquinoline-6-sulfonamido)phenylboronic acid], under setting [1], the half-maximal activity concentration (AC50) stood at 820 nM. Moreover, the Emax under setting [2] was 99.3%.

For `Cc1ccc(Cl)cc1NS(=O)(=O)c1cc2c(cc1F)NC(=O)CC2` [Compound 48, N-(5-chloro-2-methylphenyl)-7-fluoro-2-oxo-1,2,3,4-tetrahydroquinoline-6-sulfonamide], the AC50 under setting [1] amounted to 4610 nM. Besides, under setting [2], the Emax was 94.6%.

`Cc1ccc(NC(=O)c2ccc3c(c2)CCC(=O)N3)cc1C` [Compound 42, N-(3,4-dimethylphenyl)-2-oxo-1,2,3,4-tetrahydroquinoline-6-carboxamide]: under setting [2], the “Max. Res.” value was 5. For the same compound, under “linkage variants of compound 4, read-out: AC50”, the AC50 amounted to 40000 nM. Moreover, the Emax (linkage variants of compound 4) came to 5%.

In the case of `Cc1ccc(NS(=O)(=O)c2ccc3c(c2)CCC(=O)N3)cc1F` [Compound 55, N-(3-fluoro-4-methylphenyl)-2-oxo-1,2,3,4-tetrahydroquinoline-6-sulfonamide], the AC50 under setting [1] stood at 460 nM. Moreover, under setting [2], the Emax turned out to be 131%.

Turning to `CNc1cc2c(cc1S(=O)(=O)Nc1ccc(C)c(C)c1)CCC(=O)N2` [Compound 33, N-(3,4-dimethylphenyl)-7-(methylamino)-2-oxo-1,2,3,4-tetrahydroquinoline-6-sulfonamide], where the note is “Table 3, 0.1 mM ADP, 0.5 mM PEP, mean of three replicate experiments, read-out: hPK, M2 AC50”, the AC50 was found to be 160 nM. Further, the activation at 57 µM (Table 3, mean of three replicate experiments) came to 53%.

`Cc1ccc(NS(=O)(=O)c2ccc3[nH]c(=O)[nH]c3c2)cc1C` [Compound 9, N-(3,4-dimethylphenyl)-2-oxo-2,3-dihydro-1H-benzo[d]imidazole-5-sulfonamide]: under setting [5], the AC50 is 21000 nM. For the same compound, the activation at 57 µM under setting [6] was 59%.

For `Cc1ccc(NS(=O)(=O)c2cc3c(cc2N[C@@H](C)CO)NC(=O)CC3)cc1C` [Compound 68, (S)—N-(3,4-dimethylphenyl)-7-(1-hydroxypropan-2-ylamino)-2-oxo-1,2,3,4-tetrahydroquinoline-6-sulfonamide], under setting [1], the AC50 worked out at 90 nM. In addition, the Emax under setting [2] came out at 131%.

On to `Cc1ccccc1NS(=O)(=O)c1ccc2c(c1)CCC(=O)N2` [Compound 24, 2-oxo-N-o-tolyl-1,2,3,4-tetrahydroquinoline-6-sulfonamide], for which the AC50 under setting [3] came to 3900 nM. Also, under setting [4], the activation at 57 µM was 96%.

`O=C1CCc2cc(S(=O)(=O)Nc3ccccc3F)ccc2N1` [Compound 26, N-(2-fluorophenyl)-2-oxo-1,2,3,4-tetrahydroquinoline-6-sulfonamide]: the AC50 under setting [3] was 7300 nM. The activation at 57 µM under setting [4] came to 85%.

With `Cc1ccc(NS(=O)(=O)c2cc3c(cc2Cl)NC(=O)C3)cc1C` [Compound 57, 6-chloro-N-(3,4-dimethylphenyl)-2-oxoindoline-5-sulfonamide], the AC50 under setting [1] turned out to be 920 nM. The Emax under setting [2] came to 108%.

Consider `Cc1ccc(NS(=O)(=O)c2ccc3c(c2)NC(=O)CO3)cc1C` [Compound 7, N-(3,4-dimethylphenyl)-3-oxo-3,4-dihydro-2H-benzo[b][1,4]oxazine-6-sulfonamide], for which the AC50 under setting [5] worked out at 20000 nM. For the same compound, the activation at 57 µM under setting [6] came to 93%.

Turning to `O=C1CCc2cc(S(=O)(=O)Nc3cccc(F)c3)ccc2N1` [Compound 16, N-(3-fluorophenyl)-2-oxo-1,2,3,4-tetrahydroquinoline-6-sulfonamide], the half-maximal activity concentration (AC50) under setting [3] was determined as 1800 nM. In addition, under setting [4], the activation at 57 µM was 93%.

For `Cc1cc(NS(=O)(=O)c2ccc3c(c2)CCC(=O)N3)ccc1F` [Compound 53, N-(4-fluoro-3-methylphenyl)-2-oxo-1,2,3,4-tetrahydroquinoline-6-sulfonamide], under setting [1], the half-maximal activity concentration (AC50) turned out to be 370 nM. Also, the Emax under setting [2] worked out at 121%.

For the compound `Cc1ccc(Cl)cc1NS(=O)(=O)c1cc2c(cc1Cl)CCC(=O)N2` [Compound 45, 6-chloro-N-(5-chloro-2-methylphenyl)-2-oxo-1,2,3,4-tetrahydroquinoline-7-sulfonamide], under setting [1], the AC50 turned out to be 2910 nM. The Emax under setting [2] is 109%.

As to `C[C@@H](CO)Nc1cc2c(cc1S(=O)(=O)Nc1ccc(F)c(Cl)c1)CCC(=O)N2` [Compound 73, (S)—N-(3-chloro-4-fluorophenyl)-7-(1-hydroxypropan-2-ylamino)-2-oxo-1,2,3,4-tetrahydroquinoline-6-sulfonamide], the AC50 under setting [1] amounted to 140 nM. For the same compound, the Emax under setting [2] turned out to be 95%.

In the case of `Cc1ccc(NS(=O)(=O)c2ccc3c(c2)CCCC(=O)N3)cc1C` [Compound 6, N-(3,4-dimethylphenyl)-2-oxo-2,3,4,5-tetrahydro-1H-benzo[b]azepine-7-sulfonamide], the concentration at half-maximal activity (AC50) under setting [5] was found to be 18000 nM. For the same compound, the activation at 57 µM under setting [6] came to 66%.

Regarding `Cc1ccc(NS(=O)(=O)c2cc3c(cc2NC(C)CO)NC(=O)CC3)cc1C` (stereo not shown) [Compound 67, N-(3,4-dimethylphenyl)-7-(1-hydroxypropan-2-ylamino)-2-oxo-1,2,3,4-tetrahydroquinoline-6-sulfonamide], the AC50 under setting [1] is 110 nM. Further, the Emax under setting [2] was 110%.

Consider `Cc1ccc(NS(=O)(=O)c2cc3c(cc2N[C@@H](C)CO)NC(=O)CC3)cc1Cl` [Compound 71, (S)—N-(3-chloro-4-methylphenyl)-7-(l-hydroxypropan-2-ylamino)-2-oxo-1,2,3,4-tetrahydroquinoline-6-sulfonamide], for which, under setting [1], the AC50 came to 80 nM. The Emax under setting [2] was determined as 124%.

Regarding `Cc1ccc(NS(=O)(=O)c2ccc3c(c2)CCC(=O)N3)cc1` [Compound 21, 2-oxo-N-p-tolyl-1,2,3,4-tetrahydroquinoline-6-sulfonamide], under setting [3], the AC50 worked out at 4100 nM. Under setting [4], the activation at 57 µM was found to be 110%.

With `N#Cc1cccc(NS(=O)(=O)c2ccc3c(c2)CCC(=O)N3)c1` [Compound 46, N-(3-cyanophenyl)-2-oxo-1,2,3,4-tetrahydroquinoline-6-sulfonamide], the half-maximal activity concentration (AC50) under setting [1] was 9190 nM. In addition, the Emax under setting [2] was 97%.

As to `O=C1CCc2cc(S(=O)(=O)Nc3cccc(-c4ccccc4)c3)ccc2N1` [Compound 18, N-(biphenyl-3-yl)-2-oxo-1,2,3,4-tetrahydroquinoline-6-sulfonamide], under setting [3], the AC50 amounted to 14000 nM. Further, the activation at 57 µM under setting [4] came out at 13%.
